Assay [1] addresses T1, Serine/threonine-protein kinase TAO1 (Homo sapiens) (UniProt Q7L7X3).
T1 sequence (whole entry): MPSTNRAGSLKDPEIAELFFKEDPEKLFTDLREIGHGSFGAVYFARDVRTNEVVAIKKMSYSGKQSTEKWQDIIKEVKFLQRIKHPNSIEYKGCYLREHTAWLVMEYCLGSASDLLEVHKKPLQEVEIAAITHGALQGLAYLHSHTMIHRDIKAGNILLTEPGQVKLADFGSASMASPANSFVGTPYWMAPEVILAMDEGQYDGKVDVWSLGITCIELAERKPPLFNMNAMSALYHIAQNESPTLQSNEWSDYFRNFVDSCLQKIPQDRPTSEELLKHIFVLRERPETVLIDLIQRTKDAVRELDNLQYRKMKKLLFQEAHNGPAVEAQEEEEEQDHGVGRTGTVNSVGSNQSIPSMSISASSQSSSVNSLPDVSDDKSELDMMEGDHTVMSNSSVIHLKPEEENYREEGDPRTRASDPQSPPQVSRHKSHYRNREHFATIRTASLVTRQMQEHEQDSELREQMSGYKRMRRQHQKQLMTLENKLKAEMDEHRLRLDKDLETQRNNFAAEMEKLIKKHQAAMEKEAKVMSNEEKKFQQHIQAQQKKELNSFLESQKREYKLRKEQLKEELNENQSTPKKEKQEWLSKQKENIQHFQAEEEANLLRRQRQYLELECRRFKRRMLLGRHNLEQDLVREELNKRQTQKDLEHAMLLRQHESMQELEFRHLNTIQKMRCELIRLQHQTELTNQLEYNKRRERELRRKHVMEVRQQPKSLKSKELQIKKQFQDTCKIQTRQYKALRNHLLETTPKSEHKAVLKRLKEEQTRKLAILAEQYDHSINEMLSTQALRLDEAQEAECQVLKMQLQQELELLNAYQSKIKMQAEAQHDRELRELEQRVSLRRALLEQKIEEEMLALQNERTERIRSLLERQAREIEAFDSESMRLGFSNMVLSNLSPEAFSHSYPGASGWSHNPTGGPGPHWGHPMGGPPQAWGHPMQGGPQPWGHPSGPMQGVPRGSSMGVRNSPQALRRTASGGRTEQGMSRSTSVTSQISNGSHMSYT
The experiment in a line: Inhibition of TAO1 Lys2 labeling site in human A-375 cells at 5 uM by KiNativ Profiling analysis relative to control. In kind it is cell-based.

The target of assay [2] is G protein-coupled receptor kinase 4 (Homo sapiens) (UniProt P32298). The experiment in a line: Inhibition of GRK4 (unknown origin) at 1 uM by Ambit Kinomescan binding assay relative to control; values are per cent of control.
A short description of assay [3]: Inhibition of KHS1 Lys2 labeling site in human A-375 cells at 5 uM by KiNativ Profiling analysis relative to control. The note with it: condition cancer.
In assay [4] the target is Fibroblast growth factor receptor 4 (Homo sapiens) (UniProt P22455). Put plainly: Inhibition of FGFR4 (unknown origin) at 10 uM by Ambit Kinomescan binding assay relative to control.
Fibroblast growth factor receptor 4 (Homo sapiens), sequence (P22455 22-802 limits assumed): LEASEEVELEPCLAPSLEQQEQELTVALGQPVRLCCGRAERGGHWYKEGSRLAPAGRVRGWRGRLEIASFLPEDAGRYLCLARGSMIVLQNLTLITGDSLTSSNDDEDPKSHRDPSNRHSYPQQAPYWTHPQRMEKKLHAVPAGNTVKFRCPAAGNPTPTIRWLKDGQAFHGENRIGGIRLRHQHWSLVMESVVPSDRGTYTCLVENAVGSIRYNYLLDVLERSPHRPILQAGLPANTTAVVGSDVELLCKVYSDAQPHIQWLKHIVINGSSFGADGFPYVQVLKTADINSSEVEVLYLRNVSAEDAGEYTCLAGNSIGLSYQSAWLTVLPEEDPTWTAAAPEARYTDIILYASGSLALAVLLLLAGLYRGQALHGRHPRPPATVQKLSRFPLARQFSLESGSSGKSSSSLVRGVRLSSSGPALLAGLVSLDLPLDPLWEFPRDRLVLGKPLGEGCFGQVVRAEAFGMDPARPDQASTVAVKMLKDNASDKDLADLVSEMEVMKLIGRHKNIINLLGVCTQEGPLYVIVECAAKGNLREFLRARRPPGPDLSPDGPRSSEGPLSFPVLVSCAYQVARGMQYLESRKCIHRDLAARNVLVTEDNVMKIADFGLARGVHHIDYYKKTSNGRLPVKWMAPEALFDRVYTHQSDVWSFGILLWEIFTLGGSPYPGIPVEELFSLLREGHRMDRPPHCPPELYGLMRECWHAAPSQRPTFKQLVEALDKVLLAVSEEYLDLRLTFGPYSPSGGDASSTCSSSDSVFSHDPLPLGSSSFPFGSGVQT
For assay [5], the system named is Mast/stem cell growth factor receptor Kit (Homo sapiens), P10721 [V559D,T670I]. Put plainly: Inhibition of KIT V559D/T670I double mutant (unknown origin) at 10 uM by Ambit Kinomescan binding assay relative to control.
Mast/stem cell growth factor receptor Kit (Homo sapiens), P10721 [V559D,T670I], sequence (P10721 whole entry V559D/T670I): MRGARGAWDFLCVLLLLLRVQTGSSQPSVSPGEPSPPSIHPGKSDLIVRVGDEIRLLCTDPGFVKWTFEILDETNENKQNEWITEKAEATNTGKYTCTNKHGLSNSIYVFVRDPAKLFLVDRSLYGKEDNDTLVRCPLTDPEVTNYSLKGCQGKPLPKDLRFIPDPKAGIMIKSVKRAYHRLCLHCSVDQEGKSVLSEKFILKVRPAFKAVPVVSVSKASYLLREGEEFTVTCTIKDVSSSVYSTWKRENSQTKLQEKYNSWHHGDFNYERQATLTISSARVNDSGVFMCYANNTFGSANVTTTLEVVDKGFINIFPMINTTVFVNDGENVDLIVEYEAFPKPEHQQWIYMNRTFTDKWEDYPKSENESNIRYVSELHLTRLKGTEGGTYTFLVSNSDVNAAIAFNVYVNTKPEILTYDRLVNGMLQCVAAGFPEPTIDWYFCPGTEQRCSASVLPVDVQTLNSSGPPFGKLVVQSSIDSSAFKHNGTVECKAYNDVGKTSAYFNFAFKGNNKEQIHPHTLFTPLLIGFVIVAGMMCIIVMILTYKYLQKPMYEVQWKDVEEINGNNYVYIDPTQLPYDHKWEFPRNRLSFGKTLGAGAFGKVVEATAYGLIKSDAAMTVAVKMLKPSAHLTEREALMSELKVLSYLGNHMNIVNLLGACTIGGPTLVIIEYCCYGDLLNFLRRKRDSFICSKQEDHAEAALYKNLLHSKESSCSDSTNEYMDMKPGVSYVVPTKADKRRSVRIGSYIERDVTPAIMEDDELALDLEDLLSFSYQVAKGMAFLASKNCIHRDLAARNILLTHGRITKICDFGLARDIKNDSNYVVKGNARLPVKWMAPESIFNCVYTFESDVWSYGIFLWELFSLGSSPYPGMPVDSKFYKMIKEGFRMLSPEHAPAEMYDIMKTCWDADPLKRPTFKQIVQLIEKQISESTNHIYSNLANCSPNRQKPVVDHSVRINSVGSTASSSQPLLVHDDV
For assay [6], the target named is Ephrin type-A receptor 4 (Homo sapiens) (UniProt P54764). Put plainly: Inhibition of EPHA4 (unknown origin) at 10 uM by Ambit Kinomescan binding assay relative to control.
In assay [7] the target is T2, Mitogen-activated protein kinase kinase kinase kinase 2 (Homo sapiens) (UniProt Q12851).
T2 sequence (whole entry): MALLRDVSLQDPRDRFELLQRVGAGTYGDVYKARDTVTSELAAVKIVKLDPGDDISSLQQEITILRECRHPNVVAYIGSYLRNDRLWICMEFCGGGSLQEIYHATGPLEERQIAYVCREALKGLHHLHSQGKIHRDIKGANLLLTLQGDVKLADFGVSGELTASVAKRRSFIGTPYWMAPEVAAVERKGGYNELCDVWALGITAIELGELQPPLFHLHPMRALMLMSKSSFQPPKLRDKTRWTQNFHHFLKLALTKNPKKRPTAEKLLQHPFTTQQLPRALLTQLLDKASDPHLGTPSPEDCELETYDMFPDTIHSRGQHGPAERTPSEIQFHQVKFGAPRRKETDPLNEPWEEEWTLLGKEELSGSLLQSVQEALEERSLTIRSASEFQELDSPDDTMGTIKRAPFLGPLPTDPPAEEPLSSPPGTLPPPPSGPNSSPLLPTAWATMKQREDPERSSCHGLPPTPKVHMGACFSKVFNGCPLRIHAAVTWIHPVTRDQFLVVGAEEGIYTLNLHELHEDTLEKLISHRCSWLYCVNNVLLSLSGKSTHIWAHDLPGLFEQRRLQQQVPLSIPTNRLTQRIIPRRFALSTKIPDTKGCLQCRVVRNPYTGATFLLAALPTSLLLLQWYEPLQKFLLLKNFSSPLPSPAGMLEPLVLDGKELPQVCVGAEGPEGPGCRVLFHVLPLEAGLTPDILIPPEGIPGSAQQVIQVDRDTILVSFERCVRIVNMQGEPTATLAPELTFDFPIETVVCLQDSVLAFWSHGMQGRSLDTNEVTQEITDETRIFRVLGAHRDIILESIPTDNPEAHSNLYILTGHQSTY
Put plainly: Inhibition of MAP4K2 (GCK) Lys2 labeling site in human A-375 cells at 5 uM by KiNativ Profiling analysis relative to control. In kind it is cell-based.

Assay [8] concerns the target Casein kinase I isoform epsilon (Homo sapiens) (UniProt P49674). Put plainly: Inhibition of CSNK1E (unknown origin) at 10 uM by Ambit Kinomescan binding assay.
The target in assay [9] is Mitogen-activated protein kinase kinase kinase 11 (Homo sapiens) (UniProt Q16584). Put plainly: Inhibition of MLK3 K2 labeling site in human Huh-7 cells at 1 uM by KiNativ Profiling analysis relative to control. In kind it is cell-based.
Assay [10] addresses Dual specificity mitogen-activated protein kinase kinase 2 (Homo sapiens) (UniProt P36507). The experiment in a line: Inhibition of MAP2K2 Lys2 labeling site in human A-375 cells at 5 uM by KiNativ Profiling analysis relative to control. In kind it is cell-based.
The target in assay [11] is Serine/threonine-protein kinase 16 (Homo sapiens) (UniProt O75716). Put plainly: Inhibition of STK16 (unknown origin) at 10 uM by Ambit Kinomescan binding assay.
Serine/threonine-protein kinase 16 (Homo sapiens), sequence (O75716 whole entry, the tested form may be a part): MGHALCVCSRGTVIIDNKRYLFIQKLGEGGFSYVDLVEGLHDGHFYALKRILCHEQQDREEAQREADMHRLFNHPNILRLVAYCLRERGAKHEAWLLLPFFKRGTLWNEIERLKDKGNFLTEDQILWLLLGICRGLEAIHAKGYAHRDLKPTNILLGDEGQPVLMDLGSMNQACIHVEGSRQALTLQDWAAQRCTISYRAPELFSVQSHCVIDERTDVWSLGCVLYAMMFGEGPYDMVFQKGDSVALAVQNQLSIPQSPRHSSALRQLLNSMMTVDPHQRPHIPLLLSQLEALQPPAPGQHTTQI
In assay [12] the target is Ribosomal protein S6 kinase alpha-3 (Homo sapiens) (UniProt P51812). Put plainly: Inhibition of RSK2 domain1 Lys2 labeling site in human Huh-7 cell lysate at 1 uM by KiNativ Profiling analysis relative to control. In kind it is subcellular.
Ribosomal protein S6 kinase alpha-3 (Homo sapiens), sequence (P51812 whole entry, the tested form may be a part): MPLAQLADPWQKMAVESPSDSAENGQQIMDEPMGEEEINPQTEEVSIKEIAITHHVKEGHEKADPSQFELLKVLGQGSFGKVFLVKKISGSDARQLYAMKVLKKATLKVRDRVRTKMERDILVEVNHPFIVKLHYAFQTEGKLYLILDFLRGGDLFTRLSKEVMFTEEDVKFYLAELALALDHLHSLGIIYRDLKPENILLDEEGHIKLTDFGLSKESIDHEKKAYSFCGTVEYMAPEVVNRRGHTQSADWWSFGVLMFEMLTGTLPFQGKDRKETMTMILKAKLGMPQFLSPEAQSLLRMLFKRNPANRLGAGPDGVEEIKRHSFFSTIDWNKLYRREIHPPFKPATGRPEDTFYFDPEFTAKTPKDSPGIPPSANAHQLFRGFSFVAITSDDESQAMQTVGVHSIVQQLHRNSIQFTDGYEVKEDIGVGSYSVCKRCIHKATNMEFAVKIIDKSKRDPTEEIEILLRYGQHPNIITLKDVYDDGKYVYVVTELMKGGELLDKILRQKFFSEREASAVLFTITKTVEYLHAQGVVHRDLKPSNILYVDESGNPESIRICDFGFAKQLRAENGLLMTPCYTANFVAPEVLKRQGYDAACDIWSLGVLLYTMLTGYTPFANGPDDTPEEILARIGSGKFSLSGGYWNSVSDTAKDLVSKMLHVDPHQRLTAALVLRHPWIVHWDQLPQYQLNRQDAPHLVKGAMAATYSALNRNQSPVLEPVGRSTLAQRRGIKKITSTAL
The target in assay [13] is Mitogen-activated protein kinase kinase kinase kinase 4 (Homo sapiens, UniProt O95819). Put plainly: Inhibition of ZC1/HGK Lys2 labeling site in human Huh-7 cells at 1 uM by KiNativ Profiling analysis relative to control. In kind it is cell-based.
Mitogen-activated protein kinase kinase kinase kinase 4, sequence (O95819 2-1239 limits assumed): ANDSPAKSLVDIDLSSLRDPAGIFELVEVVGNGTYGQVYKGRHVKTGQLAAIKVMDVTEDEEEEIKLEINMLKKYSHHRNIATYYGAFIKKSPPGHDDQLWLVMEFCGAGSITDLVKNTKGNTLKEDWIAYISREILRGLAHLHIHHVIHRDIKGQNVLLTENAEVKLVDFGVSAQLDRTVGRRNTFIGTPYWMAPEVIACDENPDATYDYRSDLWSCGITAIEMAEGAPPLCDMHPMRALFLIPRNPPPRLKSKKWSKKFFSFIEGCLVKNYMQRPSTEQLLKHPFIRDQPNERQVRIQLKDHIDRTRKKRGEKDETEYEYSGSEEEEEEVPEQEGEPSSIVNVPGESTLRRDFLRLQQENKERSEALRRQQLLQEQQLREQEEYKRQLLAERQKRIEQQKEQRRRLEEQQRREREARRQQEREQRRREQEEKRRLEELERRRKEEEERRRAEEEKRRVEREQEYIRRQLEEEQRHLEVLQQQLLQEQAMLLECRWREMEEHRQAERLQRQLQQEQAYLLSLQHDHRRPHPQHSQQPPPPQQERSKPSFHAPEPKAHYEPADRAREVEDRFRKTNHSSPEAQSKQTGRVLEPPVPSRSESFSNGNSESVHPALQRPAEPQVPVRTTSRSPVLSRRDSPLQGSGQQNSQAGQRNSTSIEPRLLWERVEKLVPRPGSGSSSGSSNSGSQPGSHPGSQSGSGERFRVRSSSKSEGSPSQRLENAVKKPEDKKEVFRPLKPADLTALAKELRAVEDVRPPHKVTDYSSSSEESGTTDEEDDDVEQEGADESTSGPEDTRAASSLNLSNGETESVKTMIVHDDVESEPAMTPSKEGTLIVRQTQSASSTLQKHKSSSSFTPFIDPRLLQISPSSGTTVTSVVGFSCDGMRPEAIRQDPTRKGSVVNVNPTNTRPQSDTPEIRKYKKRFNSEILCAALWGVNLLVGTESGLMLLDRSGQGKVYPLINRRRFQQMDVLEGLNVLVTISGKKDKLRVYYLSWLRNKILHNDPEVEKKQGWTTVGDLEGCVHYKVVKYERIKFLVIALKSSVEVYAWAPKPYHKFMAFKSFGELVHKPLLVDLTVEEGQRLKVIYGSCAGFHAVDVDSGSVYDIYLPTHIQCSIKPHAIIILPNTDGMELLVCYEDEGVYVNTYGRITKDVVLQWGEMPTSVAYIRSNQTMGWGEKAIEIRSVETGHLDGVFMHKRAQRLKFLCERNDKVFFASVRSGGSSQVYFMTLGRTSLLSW
The target in assay [14] is Cyclin-dependent kinase 1 (Homo sapiens) (UniProt P06493). The experiment in a line: Inhibition of CDC2 Lys1 labeling site in human Huh-7 cells at 1 uM by KiNativ Profiling analysis relative to control. In kind it is cell-based.

Active and inactive are the calls of the source. No cut-off for these calls is given here.

Dual specificity mitogen-activated protein kinase kinase 2 (Homo sapiens), sequence (P36507 whole entry): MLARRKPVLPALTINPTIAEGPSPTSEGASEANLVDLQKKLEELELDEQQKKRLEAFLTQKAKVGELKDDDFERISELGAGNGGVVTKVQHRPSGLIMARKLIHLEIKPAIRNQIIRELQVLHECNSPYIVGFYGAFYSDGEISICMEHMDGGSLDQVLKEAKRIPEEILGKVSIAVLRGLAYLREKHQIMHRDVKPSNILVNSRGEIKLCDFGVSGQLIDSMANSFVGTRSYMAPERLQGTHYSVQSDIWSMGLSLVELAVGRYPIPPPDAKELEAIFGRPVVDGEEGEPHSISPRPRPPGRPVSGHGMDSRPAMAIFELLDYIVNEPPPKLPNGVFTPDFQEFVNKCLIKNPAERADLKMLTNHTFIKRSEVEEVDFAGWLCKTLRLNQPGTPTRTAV
Casein kinase I isoform epsilon (Homo sapiens), sequence (P49674 whole entry, looked up, canonical isoform): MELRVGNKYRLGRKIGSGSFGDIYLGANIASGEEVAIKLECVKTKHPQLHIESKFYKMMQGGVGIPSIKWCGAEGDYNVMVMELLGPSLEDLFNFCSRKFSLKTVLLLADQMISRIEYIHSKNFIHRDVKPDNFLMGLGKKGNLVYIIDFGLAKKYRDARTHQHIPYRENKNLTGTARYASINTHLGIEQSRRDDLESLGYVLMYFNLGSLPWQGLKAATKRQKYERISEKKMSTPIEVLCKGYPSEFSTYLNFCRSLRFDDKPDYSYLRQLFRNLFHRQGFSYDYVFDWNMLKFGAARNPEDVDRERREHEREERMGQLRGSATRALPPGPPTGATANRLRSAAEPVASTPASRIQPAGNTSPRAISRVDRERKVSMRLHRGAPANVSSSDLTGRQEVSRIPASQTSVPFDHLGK

As a reminder, the inhibition is the drop in the measured response relative to a control, in per cent. As usually defined, the residual activity is the signal under treatment as a percentage of the control signal. Regarding `CCN1CCN(Cc2ccc(NC(=O)c3ccc(C)c(/C=C/c4cnc5[nH]ccc5c4OC)c3)cc2C(F)(F)F)CC1`, the inhibition in assay [1] was 66.2%. The compound also showed a residual activity in [2] of 40%.

As to `CCN1CCN(Cc2ccc(NC(=O)c3ccc(C)c(Oc4ccnc5[nH]ccc45)c3)cc2C(F)(F)F)CC1`, the inhibition at 5 µM in assay [3] was 42.8%. The inhibition in [4] is 0.45%; in assay [5] it was 0.05%; in assay [6], 5.8%; in assay [7] it was 96.6%; in assay [9] it was -1.6%; in [10], -10%. Further, the inhibition result in assay [8] and in assay [11] was “inactive” in each case.

Take `CNc1cc(Oc2cc(C(=O)Nc3cc(N4CCN(C)CC4)cc(C(F)(F)F)c3)ccc2C)ncn1`: the inhibition was 20.7% in [12], 9.7% in assay [13] and 8.9% in assay [14].

These data come from ChEMBL document CHEMBL5696442, “Discovery of type II inhibitors of TGFβ-activated kinase 1 (TAK1) and mitogen-activated protein kinase kinase kinase kinase 2 (MAP4K2)” (J Med Chem, 2015).
